# Patent US9662377B2, “Therapeutic composition for treatment of glioblastoma” (REGENTS OF THE UNIVERSITY OF MINNESOTA, priority 2010, dated 2017)
# System: PBMCs from CMV sera-positive donors
# Assay: CMV assay (pp65-dependent IFNγ production)
# Format: cell-based, human
# Method: 5×10^5 HLA-A2^+ iDCs were pulsed with 100 μg of tumor lysates derived in 5% or 20% O2+/−10 μg of pp65 HLA-A2-restricted CMV antigen (NLVPMVATV) (SEQ ID NO: 15) and matured as described in the methods section. Following maturation, DCs were washed 3 times, and 5×10^5 PBMCs from CMV sera-positive donors were added to DCs. CMV sera-negative PBMCs were used as a negative control. Cells were incubated for 48 h, and supernatant was analyzed by cytometric bead array (BD Biosciences) for IFNγ. Cells were cultured for an additional 24 h, stained with anti-CD8, pp65 pentamer (ProImmune), and intracellularly stained for IFNγ production.
# The inventors established an assay to determine if TLs altered DC-mediated CD8 T cell priming from a defined antigen not present in the TLs. To accomplish this, TLs were mixed with pp65 peptide, a specific marker antigen with well-defined CD8 T cell responses. […] Soluble IFNγ in the tissue culture supernatant was quantified as a measure of CD8 T cell activation. There was a background of […] of IFNγ detected in the supernatant when TLs were pulsed in the absence of pp65, possibly due to activation of T cells or natural killer (NK) cells irrespective of pp65 (FIG. 8B).
sequence,measurement,setting,value
NLVPMVATV [pp65],Response of sera-negative donor PBMCs,CMV sera-negative donor PBMCs,did not respond
same,IFNγ level above background,sera-positive donor PBMCs primed with pp65 alone (no TLs),2-4 fold
